In US20240122926A1, “APELIN RECEPTOR MODULATORS FOR TREATING MUSCLE CONDITIONS” (priority 2022, published 2024):

Tests used:
Type in all cases: in vivo, mouse
aged (18-month-old) mice [1] = assay: Cardiotoxin (CTX)-induced muscle injury, histology of tibialis (cross-sectional area, centrally nucleated fibers)
Method: Impairment of muscle regeneration can contribute to age-related muscle weakness. This is particularly true in aged individuals who engage in physical activity. Exercise-induced muscle hypertrophy is linked to the capacity of muscle stem cells to be activated and promote regeneration.
Mice were i.p injected with buprenorphine (Centravet, 0.1 mg/kg) 30 minutes before injury and the day after. The day of the injury, mice were anesthetized with isoflurane inhalation and hindlimbs were shaved. […]
Mouse muscle samples were dissected and cryopreserved in OCT frozen in liquid nitrogen cooled isopentane. […] Images were captured using a digital camera (Nanozoomer, Hamamatsu) attached to a motorized fluorescence microscope or using Olympus VS120 Virtual Microscopy Slide Scanning System. The area covered by eMHC-positive fibers and degenerated area was determined manually across the entire sections using the VS-ASW FL software measurement tools. The size of myofibers with central nuclei was calculated from laminin/DAPI staining on all fibers of the section and area determination were performed across the entire sections, using an automated image processing algorithm developed internally using the MetaXpress software (Molecular Devices).

young (3-month-old) mice = assay: Cardiotoxin (CTX)-induced muscle injury, transcript levels, young mice
Method: (§1) Mice were i.p injected with buprenorphine (Centravet, 0.1 mg/kg) 30 minutes before injury and the day after. The day of the injury, mice were anesthetized with isoflurane inhalation and hindlimbs were shaved. Then, 10 μM of cardiotoxin (CTX, Latoxan, #L8102) was injected through two injections of 25 μl into the left tibialis muscle and two injections of 50 μl into the left gastrocnemius muscle, using a 22-gauge needle (Hamilton). Mice were euthanized 3 and 7 days after injury by cervical dislocation, muscles (PBS- and CTX-injected) were cut in two parts, one being snap frozen into liquid nitrogen for total RNA extraction and the other part being embedded into OCT, frozen in isopentane cooled with liquid nitrogen for histological analysis.

aged (18-month-old) mice [2] = assay: Cardiotoxin (CTX)-induced muscle injury, transcript levels, aged mice; settings: for MyoD transcript level: 3 and 7 days
Method: as §1

[3] = tibialis anterior, 7 days, both BGE-105 dosages

CSCC[C@H](NC(=O)[C@@H]1CCCN1C(=O)CNC(=O)[C@H](CCCCN)NC(=O)[C@H](Cc1c[nH]cn1)NC(=O)[C@H](CO)NC(=O)[C@H](CC(C)C)NC(=O)[C@H](CCCNC(=N)N)NC(=O)[C@@H]1CCCN1C(=O)[C@H](CCCNC(=N)N)NC(=O)[C@@H]1CCC(=O)N1)C(=O)N1CCC[C@H]1C(=O)N[C@@H](Cc1ccccc1)C(=O)O [Pyr^1-Apelin-13]
no difference: Myf5 transcript level (young (3-month-old) mice; tibialis, 3 or 7 days) | MyoG transcript level (young (3-month-old) mice; tibialis, 3 or 7 days)
non-significant increase: MyHC8 transcript level (young (3-month-old) mice; gastrocnemius, 3 days, both BGE-105 dosages)
no significant increase: MyoD transcript level (young (3-month-old) mice; tibialis, 3 or 7 days)
no significant change: MyHC3 transcript level (young (3-month-old) mice; tibialis, 3 or 7 days) | MyHC8 transcript level (young (3-month-old) mice; tibialis, 3 or 7 days) | Myf5 transcript level (aged (18-month-old) mice [2]; gastrocnemius, 3 or 7 days) | MyoG transcript level (aged (18-month-old) mice [2]; gastrocnemius, 3 or 7 days) | Pax7 transcript level (aged (18-month-old) mice [2]; gastrocnemius, 3 or 7 days)
does not show a change: MyHC8 transcript level (aged (18-month-old) mice [2]; gastrocnemius, any time point)
no change: Myf5 transcript level (young (3-month-old) mice; gastrocnemius, 3 or 7 days) | MyoD transcript level (young (3-month-old) mice; gastrocnemius, 3 or 7 days) | MyoG transcript level (young (3-month-old) mice; gastrocnemius, 3 or 7 days) | Pax7 transcript level (young (3-month-old) mice; gastrocnemius, 3 or 7 days) | Pax7 transcript level (young (3-month-old) mice; tibialis, 3 or 7 days)
significant increase: cross-sectional area of the tibialis (aged (18-month-old) mice [1]; 3 and 7 days post cardiotoxin, BA1 (50 mg/kg/d) and BA2 (200 mg/kg/d)) | amount of centrally nucleated myofibers (CNM) (aged (18-month-old) mice [1]; 18-month-old mice after cardiotoxin, significant at the higher BGE-105 dose (200 mg/kg/day)) | MyoD transcript level (aged (18-month-old) mice [2]; gastrocnemius, both BGE-105 dosages) | MyoD transcript level (aged (18-month-old) mice [2]; tibialis anterior, both BGE-105 dosages) | Pax7 transcript level (aged (18-month-old) mice [2]; tibialis anterior, 7 days, BGE-105 50 and 200 mg/kg/day P.O., apelin 0.5 mol/kg/day injection) | MyHC3 transcript level (aged (18-month-old) mice [2]; [3]) | MyoG transcript level (aged (18-month-old) mice [2]; [3])
